Experimental data from patent publication US12263226B1, “Neratinib-cyclodextrin composition and method for preparing same” (Hangzhou Jitai Pharmaceutical Technology Co., Ltd, priority 2024, dated 2025).
Where two headings read alike, the source gives them in different places.

How the values were obtained:
[1] = cited from earlier work
[2] = Experimental: Preparation of FaSSIF solution (fasted state simulated intestinal fluid, pH 6.5): 0.42 g of NaOH, 3.44 g of NaH2PO4, and 6.19 g of NaCl were added into a beaker before 900 mL of purified water was added. The pH was adjusted and the volume was brought to 1 L with purified water. 2.24 g of FaSSIF powder was added into the 1-L buffer.
Solubility measurement: 400 μL of the FaSSIF solution was added into a scintillation flask, and a small amount of the neratinib-cyclodextrin composition powder was gradually added at room temperature with magnetic stirring until a precipitate was observed. The addition amount of the powder was recorded. The solubility of neratinib maleate was calculated from the loading amount of the powder. Dissolution measurement of the neratinib maleate substance (API): 400 μL of the FaSSIF solution was added into a scintillation flask. An excessive amount of neratinib maleate substance was added.

| Compound | bioavailability ([1]; fasting conditions in humans) [%] | decrease of area under curve (AUC) without the high-fat meal ([1]; humans, approved tablet) [times] | solubility of neratinib maleate ([2]; FaSSIF, excess substance, stirred at room temperature 48 h, supernatant by HPLC) [µg/mL] | solubility of neratinib maleate ([2]; neutral conditions (pH 6.5)) [µg/mL] |
| --- | --- | --- | --- | --- |
| CCOc1cc2ncc(C#N)c(Nc3ccc(OCc4ccccn4)c(Cl)c3)c2cc1NC(=O)/C=C/CN(C)C [neratinib, (E)-N-[4-[3-chloro-4-(pyridin-2-ylmethoxy)anilino]-3-cyano-7-ethoxyquinolin-6-yl]-4-(dimethylamino) but-2-enamide] | < 17 | 2.2 |  |  |
| neratinib maleate |  |  | 7.4 | 7.4 |
